The record followed here is the supplement of paper PMC6723410.

Each structure is given as a SMILES string.

The assay has as its system GUMC-403. In words: viability at highest tested concentration (max response) relative to DMSO (% of DMSO control); higher = less cytotoxic. Particulars: library / dose series: MIPE library, 11-point 1:3 dilution; top concentration 46.1 µM; 48 h. An outline of the steps: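 Viability at the highest tested concentration is given relative to vehicle control. For this, conditionally reprogrammed patient-derived GUMC-403 papilloma cells at 700/well in 1536-well plates were exposed to 23 nL of pinned compound for 48 h. Luminescence from CellTiter-Glo was read on a ViewLux and scaled between empty wells (0%) and vehicle wells (100%).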
`O=[S+]([O-])(CCSSCC[S+](=O)([O-])[O][Na])[O][Na]` had a viability of 119.
`Cn1cc(-c2cnn3c(N)c(Br)c([C@H]4CCCNC4)nc23)cn1` came in with a viability of 100.
The result for `COc1ccc2c(c1)[C@]13CCCCC1C(C2)N(C)CC3` (stereo partly drawn) reads 102; that for `CO[C@H]1C[C@@H]2CC[C@@H](C)[C@@](O)(O2)C(=O)C(=O)N2CCCC[C@H]2C(=O)O[C@H]([C@H](C)C[C@@H]2CC[C@@H](OC(=O)C(C)(CO)CO)[C@H](OC)C2)CC(=O)[C@H](C)/C=C(\C)[C@@H](O)[C@@H](OC)C(=O)[C@H](C)C[C@H](C)/C=C/C=C/C=C/1C`, 110.
The result for `CCCCc1nc2cc(/C=C/C(=O)NO)ccc2n1CCN(CC)CC` reads 67.2; that for `O=C(NCc1ccccc1)[C@H](Cc1ccccc1)NC(=O)[C@H]1O[C@@H]1C(=O)NCCc1ccc(O)cc1`, 107; that for `CCCCCCCCOc1ccccc1C(=O)Nc1ccc(C(=O)OCC[N+](C)(CC)CC)cc1`, 104.
For the molecule `CCCCCCCCCCCC(CC1OC(=O)C1CCCCCC)OC(=O)C(CC(C)C)NC=O` (stereo not drawn), the viability stood at 101.
The result for `CC(=O)OCC(=O)[C@@]12OC(C)(C)O[C@@H]1C[C@H]3[C@@H]4C[C@H](F)C/5=C/C(=O)/C=C\[C@]5(C)[C@@]4(F)[C@@H](O)C[C@]23C` reads 116; that for `CON(C)C(=O)N1\N=C(/S[C@]1(CCCN)C2=CC=CC=C2)C3=CC(=CC=C3F)F`, 116; that for `O=C(Oc1ccc([N+](=O)[O-])cc1)N1CCN(Cc2cccc(Oc3ccccc3)c2)CC1`, 63.7.
Take `Cc1cccc(-c2[nH]c(C(C)(C)C)nc2-c2ccc3nccnc3c2)n1`: the viability was 140.
The result for `C[C@@H]1CC[C@@]2(CC[C@]3(C)\C(=C/C[C@@H]4[C@@]5(C)C[C@@H](O)[C@H](O)[C@@](C)(CO)[C@@H]5CC[C@@]34C)[C@@H]2[C@H]1C)C(O)=O` reads 114; that for `CCC(C)(C)c1ccc(CC(C)CN2C[C@@H](C)O[C@@H](C)C2)cc1` (stereo partly drawn), 96.2.
In the case of `Oc1cc(-c2nc(-c3ccccc3)[nH]c2-c2ccncc2)ccc1Cl`, the viability is 91.4.
For `CCOC(=O)N1c2ccc(C(F)(F)F)cc2[C@@H](N(Cc2cc(C(F)(F)F)cc(C(F)(F)F)c2)C(=O)OC)C[C@H]1CC`, the viability was found to be 87.7.
`O=C1NC(=O)/C(=C/c2cccc(C(F)(F)F)c2)S1` showed a viability of 106.
`CCCC[N+]1(C)[C@@H]2CC(OC(=O)[C@H](CO)c3ccccc3)C[C@H]1[C@@H]1O[C@@H]12` (stereo partly drawn) gave a viability of 114.
As for `Cc1cnc(C(=O)O)c[n+]1[O-]`, the figure is 117.
The result for `CC[C@@H]1/C=C(\C)C[C@H](C)C[C@H](OC)[C@H]2O[C@@](O)(C(=O)C(=O)N3CCCC[C@H]3C(=O)O[C@H](/C(C)=C/[C@@H]3CC[C@H](Cl)[C@H](OC)C3)[C@H](C)[C@@H](O)CC1=O)[C@H](C)C[C@@H]2OC` reads 63.6; that for `Cc1[nH]c(/C=C2\C(=O)Nc3ccc([S+](=O)([O-])N(C)c4cccc(Cl)c4)cc32)c(C)c1C(=O)N1CCN(C)CC1`, 138; that for `NC(=O)OCC(COC(N)=O)c1ccccc1`, 110.
As for `N[S+](=O)([O-])c1cc2c(cc1Cl)NC(C(Cl)Cl)N[S+]2(=O)[O-]` (stereo not drawn), the figure is 98.6; as for `COC1=CC=C(C=C1)C2CC(=N/N2C3=CC=C(C=C3)[S+](N)([O-])=O)\C4=CC=CC=C4` (stereo not drawn), 137; as for `CCN(CC)CCCC(C)Nc1ccnc2cc(Cl)ccc12` (stereo not drawn), 103.
`CN1CCN(CC1)C/2=N/C3=CC=CC=C3NC4=C2C=C(C)S4` showed a viability of 117.
The result for `CC(C)(C)OC(=O)N[C@H]1CCCCC/C=C\[C@@H]2C[C@@]2(C(=O)N[S+](=O)([O-])C2CC2)NC(=O)[C@@H]2C[C@@H](OC(=O)N3Cc4cccc(F)c4C3)CN2C1=O` reads 138; that for `Cc1c(Cn2c(C)nc3c(C(=O)O)cc(N4CCOCC4)cc32)cccc1C(F)(F)F`, 76.9.
